The text below walks through data of ChEMBL document CHEMBL1129156, “Oreganic acid: a potent novel inhibitor of ras farnesyl-protein transferase from an endophytic fungus” (Bioorg Med Chem Lett, 1996).

Format in all cases: protein-complex assay
Experiment [1] deals with T1, Protein farnesyltransferase (Homo sapiens, UniProt P49354+P49356). Description: In vitro inhibition of human recombinant Protein farnesyltransferase.
For experiment [2], the target named is T1, Protein farnesyltransferase. The experiment can be described thus: In vitro inhibition of human recombinant Protein farnesyltransferase at 20 uM (Inactive).
Experiment [3] shares this target. The experiment can be described thus: In vitro inhibition of human recombinant Protein farnesyltransferase with respect to FPP.

The source made the active and inactive calls.

One may read the IC50 as the concentration needed to halve the response being measured. Consider `COC(=O)C/C(C(=O)OC)=C(/CCCCCCCCCCCCCCCCOS(=O)(=O)O)C(=O)OC`, for which the half-maximal inhibitory concentration (IC50) in experiment [1] worked out at 10.6 nM.

For the compound `COC(=O)C/C(C(=O)OC)=C(/CCCCCCCCCCCCCCCCO)C(=O)OC`, the result in experiment [2] was inactive.

One may read the Ki as a measure of affinity in units of concentration, obtained from inhibition or displacement. For the compound `O=C(O)C/C(C(=O)O)=C(/CCCCCCCCCCCCCCCCOS(=O)(=O)O)C(=O)O`, the concentration for half-maximal inhibition (IC50) in experiment [1] was determined as 14 nM. Also, the inhibition constant (Ki) in experiment [3] came out at 4.5 nM.

Turning to `O=C(O)C/C(C(=O)O)=C(/CCCCCCCCCCCCCCCCO)C(=O)O`, in experiment [1], the 50% inhibitory concentration (IC50) stood at 3.3 nM.
